Results reported in patent publication US7767659B2, “Synthesis of naturally occurring ecteinascidins and related compounds” (Pharma Mar, S.A., priority 2002, dated 2010).

What was measured:
[1] = system: A-549; test: cells; details: Homo sapiens, A549, 48 h; for GI50: read-out: A549 GI50; for CC50: read-out: A549 LC50; for IC (TGI): read-out: A549 TGI
How it was run: (§1)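 Colorimetric SRB read (490 nm) on triplicate wells after 48 h at 37 °C, 5% CO2. Dose range 10 to 10^−8 μg/ml; 5×10^3 cells/well pre-attached 18 h.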

[2] = system: HT-29; test: cells; details: Homo sapiens, HT-29, 48 h; for GI50: read-out: HT29 GI50; for CC50: read-out: HT29 LC50; for IC (TGI): read-out: HT29 TGI
How it was run: as §1

[3] = system: LoVo; test: cells; details: Homo sapiens, LoVo, 48 h; for GI50: read-out: LOVO GI50; for CC50: read-out: LOVO LC50; for IC (TGI): read-out: LOVO TGI
How it was run: as §1

[4] = system: DU-145; test: Inhibition of cells growth by colorimetric assay (SRB); details: Homo sapiens, DU-145, 48 h; for GI50: read-out: DU145 GI50; for CC50: read-out: DU145 LC50; for IC (TGI): read-out: DU145 TGI
How it was run: as §1

[5] = system: HeLa-APL; test: as above; details: Homo sapiens, 48 h; for GI50: read-out: HELA-APL GI50; for CC50: read-out: HELA-APL LC50; for IC (TGI): read-out: HELA-APL TGI
How it was run: as §1

[6] = system: HeLa; test: as above; details: Homo sapiens, HeLa, 48 h; for GI50: read-out: HELA GI50; for CC50: read-out: HELA LC50; for IC (TGI): read-out: HELA TGI
How it was run: as §1

[7] = system: IGROV-1; test: as above; details: Homo sapiens, IGROV-1, 48 h; for GI50: read-out: IGROV GI50; for CC50: read-out: IGROV LC50; for IC (TGI): read-out: IGROV TGI
How it was run: as §1

[8] = system: IGROV-ET; test: as above; details: Homo sapiens, 48 h; for GI50: read-out: IGROV-ET GI50; for CC50: read-out: IGROV-ET LC50; for IC (TGI): read-out: IGROV-ET TGI
How it was run: as §1

[9] = system: K-562; test: as above; details: Homo sapiens, K562, 48 h; for GI50: read-out: K562 GI50; for CC50: read-out: K562 LC50; for IC (TGI): read-out: K562 TGI
How it was run: as §1

[10] = system: LNCaP; test: as above; details: Homo sapiens, LNCaP, 48 h; for GI50: read-out: LNCAP GI50; for CC50: read-out: LNCAP LC50; for IC (TGI): read-out: LNCAP TGI
How it was run: as §1

[11] = system: LoVo-Dox; test: as above; details: Homo sapiens, 48 h; for GI50: read-out: LOVO-DOX GI50; for CC50: read-out: LOVO-DOX LC50; for IC (TGI): read-out: LOVO-DOX TGI
How it was run: as §1

[12] = system: PANC-1; test: as above; details: Homo sapiens, PANC-1, 48 h; for GI50: read-out: PANC-1 GI50; for CC50: read-out: PANC-1 LC50; for IC (TGI): read-out: PANC-1 TGI
How it was run: as §1

[13] = system: SK-BR-3; test: as above; details: Homo sapiens, SK-BR-3, 48 h; for GI50: read-out: SK-BR3 GI50; for CC50: read-out: SK-BR3 LC50; for IC (TGI): read-out: SK-BR3 TGI
How it was run: as §1

[14] = system: SK-MEL-28; test: as above; details: Homo sapiens, SK-MEL-28, 48 h; for GI50: read-out: MEL-28 GI50; for CC50: read-out: MEL-28 LC50; for IC (TGI): read-out: MEL-28 TGI
How it was run: as §1

C=CCN1[C@@H]2c3c(cc(C)c(OC)c3O)C[C@H]1[C@H](C#N)N1C2[C@@H]2SC[C@]3(NCCc4c3[nH]c3ccc(O)cc43)C(=O)OC[C@H]1c1c3c(c(C)c(OC(C)=O)c12)OCO3 (stereo partly drawn) [compound 57] was tested. Which GI50 [1] did it give?
Its GI50 is 0.0374 µM.

And the CC50 [1]?
Its CC50 is 1.5 µM.

What about the IC (TGI) [1] of the same molecule?
The IC (TGI) was 0.101 µM.

What about the GI50 [2] of the same molecule?
Its GI50 is 0.0446 µM.

And the CC50 [2]?
The CC50 was 12.2 µM.

And the IC (TGI) [2]?
The IC (TGI) was 4.38 µM.

What about the GI50 [3] of the same molecule?
The GI50 was 0.0859 µM.

And the CC50 [3]?
The CC50 was 0.877 µM.

What about the IC (TGI) [3] of the same molecule?
The IC (TGI) was 0.274 µM.

What about the GI50 [4] of the same molecule?
Its GI50 is 0.0521 µM.

And the CC50 [4]?
Its CC50 is 12.2 µM.

What about the IC (TGI) [4] of the same molecule?
Its IC (TGI) is 12.2 µM.

What about the GI50 [5] of the same molecule?
The GI50 was 0.0223 µM.

What about the CC50 [5] of the same molecule?
The CC50 was 0.115 µM.

And the IC (TGI) [5]?
Its IC (TGI) is 0.0505 µM.

What about the GI50 [6] of the same molecule?
The GI50 was 0.0268 µM.

And the CC50 [6]?
The CC50 was 0.112 µM.

And the IC (TGI) [6]?
Its IC (TGI) is 0.0564 µM.

And the GI50 [7]?
Its GI50 is 0.0288 µM.

And the CC50 [7]?
The CC50 was 6.48 µM.

What about the IC (TGI) [7] of the same molecule?
Its IC (TGI) is 0.066 µM.

And the GI50 [8]?
Its GI50 is 0.252 µM.

What about the CC50 [8] of the same molecule?
The CC50 was 1.17 µM.

And the IC (TGI) [8]?
The IC (TGI) was 0.544 µM.

What about the GI50 [9] of the same molecule?
The GI50 was 0.00882 µM.

What about the CC50 [9] of the same molecule?
The CC50 was 12.2 µM.

What about the IC (TGI) [9] of the same molecule?
The IC (TGI) was 0.0888 µM.

What about the GI50 [10] of the same molecule?
Its GI50 is 0.0151 µM.

And the CC50 [10]?
Its CC50 is 0.0693 µM.

What about the IC (TGI) [10] of the same molecule?
Its IC (TGI) is 0.0323 µM.

What about the GI50 [11] of the same molecule?
The GI50 was 0.774 µM.

What about the CC50 [11] of the same molecule?
Its CC50 is 12.2 µM.

And the IC (TGI) [11]?
The IC (TGI) was 6.22 µM.

What about the GI50 [12] of the same molecule?
The GI50 was 0.0529 µM.

What about the CC50 [12] of the same molecule?
Its CC50 is 12.2 µM.

And the IC (TGI) [12]?
The IC (TGI) was 1.34 µM.

And the GI50 [13]?
The GI50 was 0.00642 µM.

What about the CC50 [13] of the same molecule?
Its CC50 is 0.382 µM.

And the IC (TGI) [13]?
Its IC (TGI) is 0.0318 µM.

What about the GI50 [14] of the same molecule?
Its GI50 is 0.0293 µM.

What about the CC50 [14] of the same molecule?
Its CC50 is 0.106 µM.

And the IC (TGI) [14]?
The IC (TGI) was 0.0556 µM.

Which results are given for C=CCN1[C@@H]2c3c(cc(C)c(OC)c3O)C[C@H]1[C@H](C#N)N1C2[C@@H]2SC[C@]3(NCCc4c3[nH]c3ccc(C)cc43)C(=O)OC[C@H]1c1c3c(c(C)c(OC(C)=O)c12)OCO3 (stereo partly drawn) [compound 58]?
GI50 [1]: 0.216 µM; CC50 [1]: 1.24 µM; IC (TGI) [1]: 0.517 µM; GI50 [2]: 0.297 µM; CC50 [2]: 12.4 µM; IC (TGI) [2]: 1.54 µM; GI50 [3]: 0.139 µM; CC50 [3]: 0.581 µM; IC (TGI) [3]: 0.285 µM; GI50 [4]: 0.0468 µM; CC50 [4]: 12.4 µM; IC (TGI) [4]: 0.0888 µM; GI50 [5]: 0.061 µM; CC50 [5]: 1.16 µM; IC (TGI) [5]: 0.19 µM; GI50 [6]: 0.0394 µM; CC50 [6]: 0.165 µM; IC (TGI) [6]: 0.0708 µM; GI50 [7]: 0.0939 µM; CC50 [7]: 1.04 µM; IC (TGI) [7]: 0.305 µM; GI50 [8]: 0.188 µM; CC50 [8]: 0.949 µM; IC (TGI) [8]: 0.422 µM; GI50 [9]: 0.0264 µM; CC50 [9]: 12.4 µM; IC (TGI) [9]: 0.0942 µM; GI50 [10]: 0.0299 µM; CC50 [10]: 0.24 µM; IC (TGI) [10]: 0.0716 µM; GI50 [11]: 0.483 µM; CC50 [11]: 12.4 µM; IC (TGI) [11]: 2.26 µM; GI50 [12]: 0.379 µM; CC50 [12]: 12.4 µM; IC (TGI) [12]: 1.27 µM; GI50 [13]: 0.0209 µM; CC50 [13]: 2.55 µM; IC (TGI) [13]: 0.075 µM; GI50 [14]: 0.241 µM; CC50 [14]: 0.969 µM; IC (TGI) [14]: 0.469 µM
